Source: patent publication US20260364079A1 (Principia Biopharma Inc., priority 2022, published 2026)

Experiment: phase 1/2 study in relapsed/refractory ITP (NCT03395210), safety
Conditions: for Abdominal discomfort / Abdominal distension / Abdominal pain / Abnormal dreams / Akathisia / Alopecia / Anemia / Any TEAE / Arthralgia / Arthropod bite / Back pain / Conjunctival hemorrhage / Contusion / Costochondritis / Cough / Decreased appetite / Defecation urgency / Diarrhea / Dizziness / Dyspepsia / Dyspnea / Dyspnea exertional / Edema / Epigastric discomfort / Epistaxis / Erysipelas / Fatigue / Frequent bowel movements / Gingival bleeding / Headache / Heavy menstrual bleeding / Hypoesthesia / Hypophosphatemia / I lot flush / Ilypokalemia / Increased white blood cell count / Maculo-papular rash / Malaise / Micturition urgency / Muscle spasms / Myalgia / Nasal congestion / Nasopharyngitis / Nausea / Peripheral swelling / Petechiae / Pruritus / Purpura / Rash / Thrombocytopena / Upper abdominal pain / Upper respiratory tract infection / Urinary tract infection / Vomiting: TEAE any cause
Text: The Safety Population was used for all safety analyses.
Pre-existing conditions that worsened during a study were reported as AEs.
Safety was graded per NCI CTCAE, version 4.0.

[1] = 45 patients initiating 400 mg bid

Which Rescue medication use (200 mg qd) does the source give for `CC(C)(C=C(C#N)C(=O)N1CCC[C@@H](n2nc(-c3ccc(Oc4ccccc4)cc3F)c3c(N)ncnc32)C1)N1CCN(C2COC2)CC1` (mixture of isomers) [rilzabrutinib, (R)-2-[3-[4-amino-3-(2-fluoro-4-phenoxy-phenyl)pyrazolo[3,4-d]pyrimidin-1-yl]piperidine-1-carbonyl]-4-methyl-4-[4-(oxetan-3-yl)piperazin-1-yl]pent-2-enenitrile] here?
Its Rescue medication use is 1 patient.

What about the Rescue medication use (300 mg bid, patients) of the same compound?
Its Rescue medication use is 1.

And the Rescue medication use (400 mg bid, patients)?
Its Rescue medication use is 5.

What about the “dose reductions/interruptions due to adverse events” value [1] of the same compound?
The value was “no dose reductions/interruptions due to adverse events”.

And the dose-limiting toxicities [1]?
Its dose-limiting toxicities is “no dose-limiting toxicities”.

What about the tolerability (ITP patients) of the same compound?
Its tolerability is “well-tolerated”.

What about the “treatment-related bleeding or thrombotic events” value (ITP patients) of the same compound?
Its value is “no reported treatment-related bleeding or thrombotic events”.

What about the Abdominal discomfort (any grade) of the same compound?
The Abdominal discomfort was 1 (2) number of patients (percent).

What about the Abdominal distension (any grade) of the same compound?
Its Abdominal distension is 6 (10) number of patients (percent).

And the Abdominal pain (any grade)?
Its Abdominal pain is 3 (5) number of patients (percent).

And the Abnormal dreams (any grade)?
Its Abnormal dreams is 1 (2) number of patients (percent).

What about the Akathisia (any grade) of the same compound?
The Akathisia was 1 (2) number of patients (percent).

What about the Alopecia (any grade) of the same compound?
Its Alopecia is 2 (3) number of patients (percent).

And the Anemia (any grade)?
The Anemia was 4 (7) number of patients (percent).

What about the “Any TEAE” value (any grade) of the same compound?
The value was 48 (80) number of patients (percent).

And the Arthralgia (any grade)?
Its Arthralgia is 5 (8) number of patients (percent).

And the Arthropod bite (any grade)?
Its Arthropod bite is 3 (5) number of patients (percent).

What about the Back pain (any grade) of the same compound?
Its Back pain is 8 (13) number of patients (percent).

And the Conjunctival hemorrhage (any grade)?
The Conjunctival hemorrhage was 5 (8) number of patients (percent).

What about the Contusion (any grade) of the same compound?
The Contusion was 11 (18) number of patients (percent).

And the Costochondritis (any grade)?
Its Costochondritis is 2 (3) number of patients (percent).

What about the Cough (any grade) of the same compound?
Its Cough is 2 (3) number of patients (percent).

And the Decreased appetite (any grade)?
Its Decreased appetite is 1 (2) number of patients (percent).

And the Defecation urgency (any grade)?
Its Defecation urgency is 1 (2) number of patients (percent).

And the Diarrhea (any grade)?
Its Diarrhea is 22 (37) number of patients (percent).

And the Dizziness (any grade)?
The Dizziness was 2 (3) number of patients (percent).

What about the Dyspepsia (any grade) of the same compound?
The Dyspepsia was 4 (7) number of patients (percent).

And the Dyspnea (any grade)?
Its Dyspnea is 2 (3) number of patients (percent).

What about the Dyspnea exertional (any grade) of the same compound?
Its Dyspnea exertional is 2 (3) number of patients (percent).

What about the Edema (any grade) of the same compound?
Its Edema is 2 (3) number of patients (percent).

What about the Epigastric discomfort (any grade) of the same compound?
Its Epigastric discomfort is 1 (2) number of patients (percent).

And the Epistaxis (any grade)?
The Epistaxis was 2 (3) number of patients (percent).

What about the Erysipelas (any grade) of the same compound?
Its Erysipelas is 1 (2) number of patients (percent).

And the Fatigue (any grade)?
Its Fatigue is 12 (20) number of patients (percent).

And the Frequent bowel movements (any grade)?
The Frequent bowel movements was 1 (2) number of patients (percent).

What about the Gingival bleeding (any grade) of the same compound?
Its Gingival bleeding is 3 (5) number of patients (percent).

And the Headache (any grade)?
The Headache was 7 (12) number of patients (percent).

And the Heavy menstrual bleeding (any grade)?
Its Heavy menstrual bleeding is 2 (3) number of patients (percent).

What about the Hypoesthesia (any grade) of the same compound?
The Hypoesthesia was 1 (2) number of patients (percent).

What about the Hypophosphatemia (any grade) of the same compound?
The Hypophosphatemia was 2 (3) number of patients (percent).

And the I lot flush (any grade)?
Its I lot flush is 1 (2) number of patients (percent).

And the Ilypokalemia (any grade)?
Its Ilypokalemia is 1 (2) number of patients (percent).

What about the “Increased white blood cell count” value (any grade) of the same compound?
Its value is 1 (2) number of patients (percent).

What about the Maculo-papular rash (any grade) of the same compound?
The Maculo-papular rash was 1 (2) number of patients (percent).

And the Malaise (any grade)?
The Malaise was 1 (2) number of patients (percent).

What about the Micturition urgency (any grade) of the same compound?
The Micturition urgency was 1 (2) number of patients (percent).

And the Muscle spasms (any grade)?
Its Muscle spasms is 2 (3) number of patients (percent).

What about the Myalgia (any grade) of the same compound?
The Myalgia was 1 (2) number of patients (percent).

And the Nasal congestion (any grade)?
The Nasal congestion was 2 (3) number of patients (percent).

What about the Nasopharyngitis (any grade) of the same compound?
Its Nasopharyngitis is 3 (5) number of patients (percent).

What about the Nausea (any grade) of the same compound?
Its Nausea is 21 (35) number of patients (percent).

What about the Peripheral swelling (any grade) of the same compound?
The Peripheral swelling was 3 (5) number of patients (percent).

What about the Petechiae (any grade) of the same compound?
The Petechiae was 4 (7) number of patients (percent).

What about the Pruritus (any grade) of the same compound?
Its Pruritus is 2 (3) number of patients (percent).

What about the Purpura (any grade) of the same compound?
Its Purpura is 2 (3) number of patients (percent).

And the Rash (any grade)?
Its Rash is 3 (5) number of patients (percent).

What about the Thrombocytopena (any grade) of the same compound?
The Thrombocytopena was 2 (3) number of patients (percent).

What about the Upper abdominal pain (any grade) of the same compound?
The Upper abdominal pain was 3 (5) number of patients (percent).

And the “Upper respiratory tract infection” value (any grade)?
The value was 3 (5) number of patients (percent).

What about the Urinary tract infection (any grade) of the same compound?
Its Urinary tract infection is 2 (3) number of patients (percent).

What about the Vomiting (any grade) of the same compound?
The Vomiting was 4 (7) number of patients (percent).

And the Abdominal discomfort (grade 1)?
The Abdominal discomfort was 1 (2) number of patients (percent).

What about the Abdominal distension (grade 1) of the same compound?
Its Abdominal distension is 6 (10) number of patients (percent).

And the Abdominal pain (grade 1)?
The Abdominal pain was 1 (2) number of patients (percent).

What about the Abnormal dreams (grade 1) of the same compound?
Its Abnormal dreams is 1 (2) number of patients (percent).

And the Akathisia (grade 1)?
The Akathisia was 1 (2) number of patients (percent).

And the Alopecia (grade 1)?
The Alopecia was 2 (3) number of patients (percent).

And the Anemia (grade 1)?
The Anemia was “— (represents zero events)”.

What about the “Any TEAE” value (grade 1) of the same compound?
Its value is 43 (72) number of patients (percent).

And the Arthralgia (grade 1)?
Its Arthralgia is 3 (5) number of patients (percent).

What about the Arthropod bite (grade 1) of the same compound?
The Arthropod bite was 3 (5) number of patients (percent).

And the Back pain (grade 1)?
Its Back pain is 7 (12) number of patients (percent).

And the Conjunctival hemorrhage (grade 1)?
The Conjunctival hemorrhage was 5 (8) number of patients (percent).

What about the Contusion (grade 1) of the same compound?
Its Contusion is 7 (12) number of patients (percent).

What about the Costochondritis (grade 1) of the same compound?
Its Costochondritis is 2 (3) number of patients (percent).

And the Cough (grade 1)?
Its Cough is 2 (3) number of patients (percent).

And the Decreased appetite (grade 1)?
Its Decreased appetite is 1 (2) number of patients (percent).

What about the Defecation urgency (grade 1) of the same compound?
Its Defecation urgency is “— (represents zero events)”.

What about the Diarrhea (grade 1) of the same compound?
The Diarrhea was 19 (32) number of patients (percent).

What about the Dizziness (grade 1) of the same compound?
Its Dizziness is 2 (3) number of patients (percent).

And the Dyspepsia (grade 1)?
The Dyspepsia was 3 (5) number of patients (percent).

What about the Dyspnea (grade 1) of the same compound?
Its Dyspnea is 2 (3) number of patients (percent).

What about the Dyspnea exertional (grade 1) of the same compound?
The Dyspnea exertional was 2 (3) number of patients (percent).

What about the Edema (grade 1) of the same compound?
Its Edema is 2 (3) number of patients (percent).

And the Epigastric discomfort (grade 1)?
Its Epigastric discomfort is “— (represents zero events)”.

What about the Epistaxis (grade 1) of the same compound?
The Epistaxis was 2 (3) number of patients (percent).

And the Erysipelas (grade 1)?
Its Erysipelas is “— (represents zero events)”.

What about the Fatigue (grade 1) of the same compound?
The Fatigue was 10 (17) number of patients (percent).

What about the Frequent bowel movements (grade 1) of the same compound?
The Frequent bowel movements was “— (represents zero events)”.

And the Gingival bleeding (grade 1)?
The Gingival bleeding was 3 (5) number of patients (percent).

What about the Headache (grade 1) of the same compound?
Its Headache is 7 (12) number of patients (percent).

And the Heavy menstrual bleeding (grade 1)?
Its Heavy menstrual bleeding is 1 (2) number of patients (percent).

And the Hypoesthesia (grade 1)?
Its Hypoesthesia is “— (represents zero events)”.

What about the Hypophosphatemia (grade 1) of the same compound?
Its Hypophosphatemia is “— (represents zero events)”.

And the I lot flush (grade 1)?
Its I lot flush is “— (represents zero events)”.

What about the Ilypokalemia (grade 1) of the same compound?
The Ilypokalemia was 1 (2) number of patients (percent).

And the “Increased white blood cell count” value (grade 1)?
Its value is “— (represents zero events)”.

What about the Maculo-papular rash (grade 1) of the same compound?
The Maculo-papular rash was 1 (2) number of patients (percent).

What about the Malaise (grade 1) of the same compound?
The Malaise was 1 (2) number of patients (percent).

And the Micturition urgency (grade 1)?
Its Micturition urgency is 1 (2) number of patients (percent).

What about the Muscle spasms (grade 1) of the same compound?
Its Muscle spasms is 2 (3) number of patients (percent).

What about the Myalgia (grade 1) of the same compound?
Its Myalgia is 1 (2) number of patients (percent).

What about the Nasal congestion (grade 1) of the same compound?
The Nasal congestion was 1 (2) number of patients (percent).

What about the Nasopharyngitis (grade 1) of the same compound?
Its Nasopharyngitis is 2 (3) number of patients (percent).

And the Nausea (grade 1)?
The Nausea was 18 (30) number of patients (percent).

What about the Peripheral swelling (grade 1) of the same compound?
Its Peripheral swelling is 3 (5) number of patients (percent).

What about the Petechiae (grade 1) of the same compound?
Its Petechiae is 4 (7) number of patients (percent).

And the Pruritus (grade 1)?
Its Pruritus is 1 (2) number of patients (percent).

What about the Purpura (grade 1) of the same compound?
Its Purpura is 2 (3) number of patients (percent).

And the Rash (grade 1)?
Its Rash is 1 (2) number of patients (percent).

What about the Thrombocytopena (grade 1) of the same compound?
The Thrombocytopena was “— (represents zero events)”.

What about the Upper abdominal pain (grade 1) of the same compound?
Its Upper abdominal pain is 2 (3) number of patients (percent).

What about the “Upper respiratory tract infection” value (grade 1) of the same compound?
The value was 2 (3) number of patients (percent).

What about the Urinary tract infection (grade 1) of the same compound?
Its Urinary tract infection is 1 (2) number of patients (percent).

And the Vomiting (grade 1)?
The Vomiting was 3 (5) number of patients (percent).

What about the Abdominal discomfort (grade 2) of the same compound?
Its Abdominal discomfort is “— (represents zero events)”.

And the Abdominal distension (grade 2)?
Its Abdominal distension is “— (represents zero events)”.
